The values that follow come from patent US20220386582A1, “METHOD AND DEVICE TO TRAP ACARIDS” (DOMOBIOS, priority 2015, published 2022).

Common to all, as to format: in vivo
In experiment [1] the test system is Dermatophagoides farinae. Kind of experiment: Mini-mattress trap: attraction capabilities of attracting solutions sprayed on felt. As to the method: (§1) Rearing: The species studied were Dermatophagoides pteronyssinus and Dermatophagoides farinae, house dust mite common in mattresses in Eurasia. Mites are reared in Petri dishes and fed with human skin flakes (skin and whiskers obtained by cleaning electric […]). All mites were reared together under defined conditions (20° C. and 75% relative humidity). The experiments took place in a room kept at 20° C. and 40% relative humidity. Aim of the experiments: The aim was to test the trap in condition similar to the conditions that will be met by the user of the trap. Materials and methods: The mattresses were built at a smaller scale (15× reduction) than usual mattresses. These mini-mattresses are made in polyurethane and covered by a cover in cotton. They were infested with mites since at least 3 months. The fabric was a felt of 20 mg/cm^2 and is a rectangle of 10 cm×20 cm. It was placed on the mini-mattress. Then the attracting solution was sprayed on the fabric with a spray bottle. The fabric was left in place on the mattress during one hour. During this time, the mites moved in the felt. It is very difficult to count directly the mites hidden in the mattress and in the fabric. Therefore, we used a Berlèse funnel which is a device that is usually used to separate insects from litter. Here, it was used to separate the mites from their mattress or from the fabric. The Berlèse funnel uses a light bulb to heat and dry the mattress, thus driving the mites downwards through a screen and into a collecting jar containing some food and some water. […] They are attracted by a source of moisture and the smell of food. The mattress or blanket were therefore placed in the funnel (FIG. 2). The mites went downwards in the direction of the jar, then in the jar. The harvest of the jar containing the mites took place after one day. Mites had then 24 hours to migrate to the jar collector. As a substantial proportion of the population is immobile (moulting mites), trapping is less efficient than it would be otherwise and estimate of population size that is trapped are likely to be biased. To avoid this bias and make a proper assessment of the populations in infested mattresses, mattresses were carefully brushed with a soft brush at the end of the manipulation meaning that immobile mites and eggs also fall into the funnel. Fabric was carefully brushed too. The Berlèze funnel was rinsed with ethanol. Thus, mites still on the inner wall of the funnel were driven by ethanol in the jar collector. At the end of the experiment, the jar contained: the food used as attracting to mites, a small amount of water also used for attracting, mites, and ethanol. The jar was emptied into a Petri dish and we counted mites under binocular. Counting of mites was made under binocular microscope (magnification 10×). The set-up is illuminated with a cold lamp (KL 1500 LCD, Schott ●). The felt was sprayed with different attracting compositions: a solution of lavandulol, a solution of Tween 60, a combination of lavandulol and Tween 60, a solution of citral, and the attracting solution commercialized under the brand name Acar'up were compared at various dilutions.

In experiment [2] the test system is Dermatophagoides pteronyssinus. The description is as above. The protocol: as §1
Experiment [3] has as its system Dermatophagoides farinae. Kind of experiment: Toxicity, direct contact. The protocol: (§2) FIGS. 11A-11D are sets of graphs showing the percentage of dead mites after direct contact with different doses of lavandulol (at a dilution of 10^−6, 0.184 of pure solution or 0.5 μL of pure solution) or water (Ctrl) for different time of exposure. Four species of mites were tested: Dermatophagoides pteronyssinus (FIG. 11A), Dermatophagoides farinae (FIG. 11B), Tyrophagus putrescentiae (FIG. 11C) and Acarus siro (FIG. 11D).
(§3) The species studied were two species of dust common in mattresses in Eurasia (Dermatophagoides pteronyssinus and Dermatophagoides farinae), and two species of stored food mites common in Eurasia (Tyrophagus putrescentiae and Acarus siro). These four species were reared under defined conditions (20° C. and 75% relative humidity). The house dust mites were fed with human flakes (skin and whiskers obtained by cleaning electric shavers) and stored food mites were fed with fish food. The experiments were performed at 20° C. and 40% relative humidity.
(§4) For this experiment, for each of the four species, a group of mites (10<n<25) was placed in a Petri dish in direct contact with the substance to test. To directly contact mites with the substance, a piece of paper filter (5×1 cm) impregnated with lavandulol at various concentration (10 μL of a 10^−6 dilution, 0.18 μL of pure solution and 0.5 μL of pure solution, corresponding respectively to 8.8 ng, 0.15 mg or 0.417 mg of lavandulol), or with a neutral solution, was placed in the Petri dish. The dish was then closed with Parafilm●.
(§5) After a determined time (15 min, 1 hour or 24 hours), the number of dead mites were counted as previously described.

The subject of the next experiment is Tyrophagus putrescentiae. Kind of experiment: Toxicity, direct contact. The protocol: as §2, §3, §4, §5
Experiment [4] relates to Dermatophagoides pteronyssinus. Briefly: Toxicity, direct contact. As to the method:
as §2, §3, §4, §5

For the next experiment, the system named is Acarus siro. Briefly: Toxicity, direct contact. The protocol:
as §2, §3, §4, §5

The mark [5] stands for this setting: Dilution 10^−6 (* mixture of a lavandulol solution at 10^−6 and a Tween 60 solution at 10^−6).
[6] abbreviates: 10^−6 dilution (10 μL), 15 min, 1 hour or 24 hours.
Where [7] appears, read: pure solutions (0.18 μL and 0.5 μL), after 1 hour.
Where [8] appears, read: pure solutions (0.18 μL and 0.5 μL), after 24 hours.

As to `C=C(C)C(CO)CC=C(C)C` (stereo not drawn) [Lavandulol, 5-Methyl-2-prop-1-en-2-ylhex-4-en-1-ol], the “attraction capabilities, percentage of mites” value with Dermatophagoides farinae [1] (Dilution 10^−3) is listed as 57%; in the experiment on Dermatophagoides farinae [1] (Dilution 10^−5), 90%; with Dermatophagoides farinae [1] (setting [5]), 71%; in the experiment with Dermatophagoides farinae [1] (Dilution 10^−8), 37%; in the experiment with Dermatophagoides farinae [1] (Dilution 10^−9) it was 28%; with Dermatophagoides farinae [1] (Dilution Undiluted) it was 6%. For the same compound, the “attraction capabilities, percentage of mites” value in experiment [2] (Dilution 10^−1) is recorded as 34%; in experiment [2] (Dilution 10^−3), 56%; in experiment [2] (Dilution 10^−5), 91%; in experiment [2] (setting [5]), 64%; in experiment [2] (Dilution 10^−8) it was 46%; in experiment [2] (Dilution 10^−9), 55%. The “attraction capabilities, percentage of mites” value in experiment [2] (Dilution Undiluted) is 8%. Further, the “death of mites by contact” value in the experiment with Dermatophagoides farinae [3] (setting [6]) is “doesn't cause death of mites”; in the experiment on Dermatophagoides farinae [3] (setting [7]) it was “lead to mites' death”; in the experiment with Dermatophagoides farinae [3] (setting [8]), “all mites being died”; with Tyrophagus putrescentiae (setting [6]), “doesn't cause death of mites”; with Tyrophagus putrescentiae (setting [7]), “lead to mites' death”; in the experiment on Tyrophagus putrescentiae (setting [8]), “all mites being died”. The “death of mites by contact” value in experiment [4] (setting [6]) was “doesn't cause death of mites”; in experiment [4] (setting [7]), “lead to mites' death”; in experiment [4] (setting [8]), “all mites being died”; with Acarus siro (setting [6]), “doesn't cause death of mites”. Moreover, in the experiment on Acarus siro (setting [7]), the “mites died by contact” value turned out to be 97%.
